In patent publication US20070224648A1, “Methods and compositions for the diagnosis of treatment of type 2 diabetes” (The Chancellor, Masters and Scholars of the University of …, priority 2005, published 2007):

Columns and labels:
[1] = target: T1, KATP channels from C57BL/6J β-cells (Mus musculus, UniProt Q61743); experiment: ATP sensitivity of KATP channels in inside-out patches; type: biochemical
T1 construct: inside-out patches excised from a C57BL/6J or CH3/HeH β-cell; endogenous in cells; host or cells: primary pancreatic β-cells isolated from C57BL/6J and C3H/HeH mice
T1 sequence (Q61743 whole entry): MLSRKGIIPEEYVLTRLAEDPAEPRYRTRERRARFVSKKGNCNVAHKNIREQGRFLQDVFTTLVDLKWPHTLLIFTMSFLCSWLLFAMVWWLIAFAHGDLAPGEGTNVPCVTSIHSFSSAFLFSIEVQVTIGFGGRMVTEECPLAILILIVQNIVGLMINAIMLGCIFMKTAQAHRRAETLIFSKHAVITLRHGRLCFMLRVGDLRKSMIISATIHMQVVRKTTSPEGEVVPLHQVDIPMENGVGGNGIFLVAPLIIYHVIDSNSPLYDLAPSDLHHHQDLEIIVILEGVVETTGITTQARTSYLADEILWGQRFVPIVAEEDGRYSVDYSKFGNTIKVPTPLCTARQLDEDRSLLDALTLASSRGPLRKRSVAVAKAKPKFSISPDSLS
T1 sequence (B2RUS7 1-1588 partner): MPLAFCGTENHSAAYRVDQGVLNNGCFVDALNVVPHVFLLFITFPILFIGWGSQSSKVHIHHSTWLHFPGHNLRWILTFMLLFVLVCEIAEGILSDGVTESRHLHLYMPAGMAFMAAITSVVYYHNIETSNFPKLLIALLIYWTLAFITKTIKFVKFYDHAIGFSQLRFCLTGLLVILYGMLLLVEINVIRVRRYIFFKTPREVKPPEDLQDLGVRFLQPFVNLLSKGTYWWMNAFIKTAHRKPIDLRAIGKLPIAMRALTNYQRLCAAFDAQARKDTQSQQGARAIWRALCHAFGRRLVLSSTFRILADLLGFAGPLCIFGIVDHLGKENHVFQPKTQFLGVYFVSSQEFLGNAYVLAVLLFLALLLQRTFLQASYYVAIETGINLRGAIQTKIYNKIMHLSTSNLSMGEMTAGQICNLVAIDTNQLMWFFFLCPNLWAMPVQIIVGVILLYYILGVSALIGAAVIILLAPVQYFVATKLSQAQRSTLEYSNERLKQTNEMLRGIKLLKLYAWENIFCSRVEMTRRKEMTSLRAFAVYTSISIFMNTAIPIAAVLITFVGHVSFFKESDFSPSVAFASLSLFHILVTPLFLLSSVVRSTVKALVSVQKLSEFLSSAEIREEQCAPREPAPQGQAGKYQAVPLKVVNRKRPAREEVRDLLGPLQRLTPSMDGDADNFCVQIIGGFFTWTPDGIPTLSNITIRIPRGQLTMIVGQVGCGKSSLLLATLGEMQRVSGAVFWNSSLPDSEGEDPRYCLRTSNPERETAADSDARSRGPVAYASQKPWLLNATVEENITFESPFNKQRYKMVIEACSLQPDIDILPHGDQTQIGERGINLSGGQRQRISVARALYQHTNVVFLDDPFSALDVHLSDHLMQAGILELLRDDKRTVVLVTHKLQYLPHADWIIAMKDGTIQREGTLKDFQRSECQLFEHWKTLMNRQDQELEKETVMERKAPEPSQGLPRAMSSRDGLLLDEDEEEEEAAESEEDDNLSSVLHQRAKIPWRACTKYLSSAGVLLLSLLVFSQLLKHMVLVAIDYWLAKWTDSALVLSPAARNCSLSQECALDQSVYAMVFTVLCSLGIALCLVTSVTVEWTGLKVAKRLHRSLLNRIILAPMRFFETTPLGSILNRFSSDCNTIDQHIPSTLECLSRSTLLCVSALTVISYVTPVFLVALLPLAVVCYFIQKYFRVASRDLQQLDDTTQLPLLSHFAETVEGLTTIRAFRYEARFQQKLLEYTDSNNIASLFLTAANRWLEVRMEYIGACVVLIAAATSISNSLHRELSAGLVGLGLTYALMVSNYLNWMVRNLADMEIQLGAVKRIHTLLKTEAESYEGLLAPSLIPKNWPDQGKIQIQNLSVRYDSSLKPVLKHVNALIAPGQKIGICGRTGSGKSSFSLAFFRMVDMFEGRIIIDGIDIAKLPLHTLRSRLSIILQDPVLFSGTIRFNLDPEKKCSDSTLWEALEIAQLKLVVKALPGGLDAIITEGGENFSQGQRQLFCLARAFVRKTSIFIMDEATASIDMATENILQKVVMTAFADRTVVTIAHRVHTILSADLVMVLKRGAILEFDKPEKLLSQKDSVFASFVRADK
Description: The ATP sensitivity of KATP channels was measured at −60 mV in inside-out patches. Currents were digitized at 5 kHz and filtered at 2 kHz. The pipette (extracellular) contained (mmol/l): 140 KCl, 2.6 CaCl2, 1.2 MgCl2, 10 HEPES (pH 7.4 with KOH). The bath (intracellular) solution contained (mmol/l): 107 KCl, 1 MgCl2, 1 CaCl2, 10 HEPES (pH 7.2 with KOH), and K2ATP as indicated.
Concentration-response relations were obtained by alternating test solutions with control (glucose- or ATP-free) solution. The control conductance was taken as the mean of that obtained in control solution before and after application of the test agent. The current in the presence of glucose or nucleotide (I) is plotted as a fraction of that obtained in control solution (IC). Data were fit with the Hill equation: I/IC=1/(1+([X]/IC50)h) where [X] is the concentration of glucose or ATP, IC50 is the concentration giving half-maximal inhibition of the current and h is the Hill coefficient. Data are given as mean±one S.E.M.

[2] = test system: isolated wild-type islets; experiment: Glucose utilization in isolated pancreatic islets; type: cell-based, mouse; details: H2O2, 20 mM glucose
Description: FIG. 19: Glucose utilization in pancreatic islets isolated wild-type and homozygous NNT mutant mice (G745D). Each data point is the mean of 6 replicates each of 5 islets. Glucose utilization was measured as described in Ashcroft S J H, Weerasinghe L C C, Bassett J M, Randle P J: The pentose cycle and insulin release in mouse pancreatic islets. Biochem J (1972) 126, 525-532. Briefly, And these islets were placed in 20 microlitres of medium containing [3H]glucose and various concentrations of unlabelled glucose (as indicated). The tubes were placed in outer vials containing 0.5 ml of water. After 2-hours of incubation, metabolism was terminated by applying 5 microlitres of HCl. Then these samples were incubated for more than 18-24 hours to allow [3H]water in the incubation tube to equilibrate with the water in outer vial. Then, radioactivity of the water in the outer vial was measured. Control samples without islets were used to correct for background counts.
FIG. 20: Effect of H2O2 on glucose utilization in isolated wild-type islets. Each data point is the mean of 6 replicates each of 5 islets.

[3] = test system: rodent islets; details: cited from earlier work
[4] = test system: β-cells isolated from C57BL/6J and C3H/HeH mice; experiment: Fura-2 imaging of intracellular calcium in isolated β-cells; type: cell-based, mouse; details: 500 μmol/l tolbutamide; C57BL/6J and C3H/HeH β-cells
Description: Islet cells were cultured on 35 mm Fluorodishes (World Precision Instruments, Stevenage, UK) and incubated with 3 μM Fura-2-AM (Molecular Probes, Paisley, UK) for 40 min at 37° C. They were imaged at room temperature (20-24° C.) using an IonOptix fluorescence system (Boston, Mass.), with 340 nm and 380 nm dual excitation. The 510 nm emission ratio was collected at 1 Hz. Background subtraction was performed by measuring fluorescence from a cell-free region in the field of view. Cells were perfused continuously with extracellular solution (as in perforated-patch experiments), plus glucose or tolbutamide as indicated. Only data from cells that responded to 500 μmol/l tolbutamide were analysed.

[5] = test system: MIN6 cells; experiment: Fura-2 calcium imaging in MIN6 cells; type: cell-based; details: for calcium response to glucose: 1 mM glutathione for 4 hours, Nnt siRNA transfected cells
Description: MIN6 cells were cultured on 35mm Fluorodishes (World Precision Instruments) and incubated with 3 μM Fura-2-AM (Molecular Probes) for 40 min at 37° C. They were imaged at room temperature (20-24° C.) using an IonOptix fluorescence system (Boston, Mass.), with 340 nm and 380 nm dual excitation. The 510 nm emission ratio was collected at 1 Hz. Background subtraction was performed by measuring fluorescence from a cell-free region in the field of view. Cells were perfused continuously with extracellular solution containing (mM): 137 NaCl, 5.6 KCl, 2.6 CaCl2, 1.2 MgCl2, 10 HEPES (pH 7.4 with NaOH) plus glucose or tolbutamide as indicated.

[6] = test system: MIN6 cells; experiment: Insulin secretion from MIN6 cells; type: cell-based; details: for insulin secretion: tolbutamide 200 μM; for insulin secretory response: 1 mM glutathione for 4 hours, Nnt siRNA transfected cells
[7] = test system: isolated pancreatic islets; experiment: Insulin secretion from isolated pancreatic islets
[8] = test system: type-2 diabetic human islets; details: cited from earlier work
[9] = test system: human and rodent pancreatic islets; details: preincubation in 15 μM metformin; cited from earlier work

Question: For `Nc1ncnc2c1ncn2[C@@H]1O[C@H](COP(=O)(O)OP(=O)(O)OP(=O)(O)O)[C@@H](O)[C@H]1O` [ATP], which “Hill coefficient h, ATP on KATP channel activity” value ([1]; inside-out patches, n=5) is on record?
Answer: The value was 0.89±0.06.

Question: And the IC50 ([1]; read-out: half-maximal inhibition of C57BL/6J KATP channels by ATP (IC50))?
Answer: Its IC50 is 10 µM.

Question: For `OO` [H2O2], which glucose utilization [2] is on record?
Answer: The glucose utilization was “significantly increases glucose utilization”.

Question: And the insulin secretion ([3]; H2O2, rodent β-cells)?
Answer: Its insulin secretion is “inhibits insulin secretion”.

Question: With `CCCCNC(=O)NS(=O)(=O)c1ccc(C)cc1` [tolbutamide] as the molecule, how does the “change in [Ca2+]i” value [4] read?
Answer: Its value is “rise in [Ca2+]i”.

Question: And the “increase in [Ca]i” value ([5]; tolbutamide 200 μM, nonsense vs Nnt siRNA transfected cells)?
Answer: Its value is “stimulated a similar increase in [Ca]i in both cells transfected with nonsense and Nnt siRNA”.

Question: And the calcium response ([5]; tolbutamide 200 μM, nonsense, Nnt, UCP2 or UCP2+Nnt siRNA transfected cells)?
Answer: The calcium response was “stimulated a calcium response”.

Question: What about the insulin secretion ([6]; nonsense vs Nnt siRNA transfected cells) of the same molecule?
Answer: The insulin secretion was “elicited equivalent responses in both nonsense and Nnt siRNA transfected cells”.

Question: What about the insulin secretion ([6]; nonsense, Nnt, UCP2, UCP2/Nnt or Gck siRNA transfected cells) of the same molecule?
Answer: The insulin secretion was “stimulated a calcium response and insulin secretion”.

Question: What about the insulin secretion ([7]; tolbutamide, B6-TG vs B6-TG negative islets) of the same molecule?
Answer: Its insulin secretion is “stimulated secretion comparably in both strains”.

Question: What does the source list for `N[C@@H](CCC(=O)N[C@@H](CS)C(=O)NCC(=O)O)C(=O)O` [glutathione]?
Answer: calcium response to glucose [5]: partially reversed the impaired calcium; calcium response to glucose ([5]; listed as Glutathione): partially restores the calcium response; insulin secretory response [6]: partially reversed the impaired calcium and insulin secretory responses; insulin secretory response ([6]; listed as Glutathione): partially restores the insulin secretory response; secretory response to glucose ([8]; 24-hour culture with 30 μM glutathione): improved significantly

Question: With `CN(C)C(=N)N=C(N)N` [metformin] as the molecule, how does the insulin secretion ([8]; preincubation in 15 μM metformin) read?
Answer: The insulin secretion was “partially restores insulin secretion in type-2 diabetic human islets”.

Question: What about the glucose-stimulated insulin secretion ([3]; incubation at 1 mM metformin) of the same molecule?
Answer: The glucose-stimulated insulin secretion was “reduces glucose-stimulated insulin secretion”.

Question: And the “protection from deleterious effects of elevated lipids” value [9]?
Answer: The value was “protects human and rodent pancreatic islets from the deleterious effects of elevated lipids”.

Question: What about the glucose-stimulated insulin secretion ([7]; Nnt-G745D islets, 24-hour preincubation in 15 μM metformin) of the same molecule?
Answer: The glucose-stimulated insulin secretion was “restored glucose-stimulated insulin secretion in pancreatic islets from the Nnt-G745D mutant mouse”.

Question: And the glucose-stimulated insulin secretion ([7]; Nnt-G745D islets, 24-hour preincubation in 15 μM metformin, listed as Metformin)?
Answer: The glucose-stimulated insulin secretion was “restores insulin secretion in Nnt mouse pancreatic islets”.

Question: And the glucose-stimulated insulin secretion ([7]; WT islets, 24-hour preincubation in 15 μM metformin)?
Answer: The glucose-stimulated insulin secretion was “little effect on wild-type (WT) pancreatic islets”.

Question: What about the glucose-stimulated insulin secretion ([7]; acute exposure to metformin) of the same molecule?
Answer: Its glucose-stimulated insulin secretion is “without effect”.
